The text below walks through data of patent publication US20230024302A1, “2,3,5-TRISUBSTITUTED PYRAZOLO[1,5-A]PYRIMIDINE COMPOUNDS” (Arcus Biosciences, Inc., priority 2019, published 2023).

Read-outs that look alike come from different tables or passages of the source.

In one assay the target is T1, PI3Kγ (p120γ) (Homo sapiens, UniProt P48736).
T1 construct: purchased Promega V1761
In words: Inhibition of PI3K kinase activity (ADP Glo), PI3Kγ. The note with it: read-out: biochemical potency (PI3Kγ IC50). In a few lines:
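Recombinant p120γ (8 nM, 2× stock) was preincubated with compound for 1 h at rt in HEPES pH 7.4, NaCl, MgCl2 and 0.05% BSA. Reaction was started with PIP2 (0.1 mg/ml, 2×) and ATP (50 μM, 2×) and ran 60 min at rt. ADP formed was read by ADP-Glo luminescence, and IC50 came from a 4-parameter fit.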

The target in another assay is T2, PI3Kγ (Homo sapiens, UniProt P48736).
T2 construct: host or cells: THP-1
T2 sequence (P48736 whole entry): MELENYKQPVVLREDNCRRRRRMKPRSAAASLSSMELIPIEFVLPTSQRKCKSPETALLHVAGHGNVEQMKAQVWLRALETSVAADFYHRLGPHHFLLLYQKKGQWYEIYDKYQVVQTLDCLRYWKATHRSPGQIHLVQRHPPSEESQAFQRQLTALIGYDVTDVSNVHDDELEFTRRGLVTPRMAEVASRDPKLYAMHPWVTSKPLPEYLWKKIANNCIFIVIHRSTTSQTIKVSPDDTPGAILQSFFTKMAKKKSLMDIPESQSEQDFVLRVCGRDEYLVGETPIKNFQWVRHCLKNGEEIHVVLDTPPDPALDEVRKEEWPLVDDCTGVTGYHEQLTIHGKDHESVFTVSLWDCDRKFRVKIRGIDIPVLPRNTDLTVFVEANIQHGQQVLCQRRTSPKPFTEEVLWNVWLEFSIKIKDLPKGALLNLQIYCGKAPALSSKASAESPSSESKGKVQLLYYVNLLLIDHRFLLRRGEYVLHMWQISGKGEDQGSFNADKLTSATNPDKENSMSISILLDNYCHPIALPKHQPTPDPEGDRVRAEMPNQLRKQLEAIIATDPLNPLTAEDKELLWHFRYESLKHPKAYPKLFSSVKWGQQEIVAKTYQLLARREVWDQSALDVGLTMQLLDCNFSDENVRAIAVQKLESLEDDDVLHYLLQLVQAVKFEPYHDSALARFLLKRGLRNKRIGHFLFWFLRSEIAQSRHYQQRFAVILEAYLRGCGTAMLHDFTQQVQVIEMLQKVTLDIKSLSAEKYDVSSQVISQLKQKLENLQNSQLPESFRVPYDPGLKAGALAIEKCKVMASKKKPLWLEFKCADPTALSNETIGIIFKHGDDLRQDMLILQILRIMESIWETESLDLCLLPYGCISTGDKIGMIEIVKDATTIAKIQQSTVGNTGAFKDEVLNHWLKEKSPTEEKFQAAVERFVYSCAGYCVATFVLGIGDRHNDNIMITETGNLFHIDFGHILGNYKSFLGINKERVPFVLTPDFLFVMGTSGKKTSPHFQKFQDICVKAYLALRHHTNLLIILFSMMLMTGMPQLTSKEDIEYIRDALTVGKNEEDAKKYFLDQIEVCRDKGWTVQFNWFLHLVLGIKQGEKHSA
In words: PI3Kγ cellular assay in THP-1 cells (AKT pS473 AlphaLISA). Format: cell-based. In short, it runs like this: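 Serum-starved THP-1 cells (1.8×10^5/well, serum-free DMEM) treated with compounds from 4 nM to 30 μM in 2% DMSO, then stimulated and lysed.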
For orientation: Alpha assays give light when donor and acceptor beads are brought close together.

The mark [1] stands for this setting: Table 1, rhMCP-1 stimulated AKT pS473, read-out: cellular potency (PI3Kγ IC50).
The mark [2] stands for this setting: Table 2, rhMCP-1 stimulated AKT pS473, read-out: cellular potency (PI3Kγ IC50).
Where [3] appears, read: AKT pS473, read-out: cellular potency (PI3Kγ IC50).

T1 sequence (P48736 whole entry): as above

Consider `C[C@@H](NC(=O)c1c(N)nn2ccc(-c3cc4c(c(NS(C)(=O)=O)c3)C(=O)N([C@@H](C)C3CC3)C4)nc12)c1cnn(C)c1` [Example 98, 2-Amino-5-{2-[(1S)-1-cyclopropylethyl]-7-methanesulfonamido-1-oxo-2,3-dihydro-1H-isoindol-5-yl}-N-[(1R)-1-(1-methyl-1H-pyrazol-4-yl)ethyl]pyrazolo[1,5-a]pyrimidine-3-carboxamide], for which the IC50 (usually the midpoint of a concentration-inhibition curve) is less than 100 nM on PI3Kγ (p120γ) (Table 1, p120γ) and less than 100 nM on PI3Kγ (setting [1]).
Consider `Cc1cc(-c2ccn3nc(N)c(C(=O)N[C@H]4CC[C@@H](O)CC4)c3n2)cc2c1C(=O)N([C@@H](C)C1CC1)C2` [Example 205], for which the IC50 at PI3Kγ (p120γ) (Table 2, p120γ) is less than 100 nM; at PI3Kγ (setting [2]), 100 to 1000 nM.
With `COc1ccncc1NC(=O)c1c(N)nn2ccc(-c3cc4c(c(OC(F)(F)F)c3)C(=O)N([C@@H](C)C3CC3)C4)nc12` [Example 48, (S)-2-Amino-5-(2-(1-cyclopropylethyl)-1-oxo-7-(trifluoromethoxy)isoindolin-5-yl)-N-(4-methoxypyridin-3-yl)pyrazolo[1,5-a]pyrimidine-3-carboxamide], the IC50 was less than 100 nM at PI3Kγ (p120γ) (Table 1, p120γ) and less than 100 nM at PI3Kγ (setting [1]).
On to `Cc1cc(-c2ccn3nc(N)c(C(=O)N[C@H]4CCCNC4)c3n2)cc2c1C(=O)N([C@@H](C)C1CC1)C2` [Example 243], for which the IC50 was less than 100 nM at PI3Kγ (p120γ) (Table 2, p120γ) and 100 to 1000 nM on PI3Kγ (setting [2]).
On the same counts, the results for `Cc1cc(-c2ccn3nc(N)c(C(=O)N[C@H]4CCOc5ccccc54)c3n2)cc2c1C(=O)N([C@@H](C)C1CC1)C2` [Example 261] are less than 100 nM and 100 to 1000 nM.
`CCNC(=O)c1c(N)nn2ccc(-c3cc4c(c(C(F)(F)F)c3)C(=O)N([C@@H](C)C3CC3)C4)nc12` [Example 68, 2-[(S)-1-Cyclopropylethyl]-5-[2-amino-3-(ethylamino)carbonyl-1,4,7a-triaza-5-indenyl]-7-(trifluoromethyl)-1-isoindolinone]: the IC50 at PI3Kγ (p120γ) (Table 1, p120γ) is less than 100 nM; at PI3Kγ (setting [1]), less than 100 nM.
In the case of `Cc1cc(-c2ccn3nc(N)c(C(=O)N[C@H]4CC[C@@H](N)CC4)c3n2)cc2c1C(=O)N([C@@H](C)C1CC1)C2` [Example 273], the IC50 was less than 100 nM at PI3Kγ (p120γ) (Table 2, p120γ) and 100 to 1000 nM at PI3Kγ (setting [2]).
With `Cc1cc(-c2ccn3nc(N)c(C(=O)N[C@@H](C)c4cccnc4)c3n2)cc2c1C(=O)N([C@@H](C)C1CC1)C2` [Example 212], the IC50 on PI3Kγ (p120γ) (Table 2, p120γ) is less than 100 nM; at PI3Kγ (setting [2]) it was 100 to 1000 nM.
Take `COC(=O)c1cc(NC(=O)c2c(N)nn3ccc(-c4cc5c(c(NS(C)(=O)=O)c4)C(=O)N([C@@H](C)C4CC4)C5)nc23)ccn1` [Example 375]: the results for the half-inhibitory concentration (IC50) at PI3Kγ (p120γ) and at PI3Kγ (setting [3]) were less than 100 nM and 100 to 1000 nM, respectively.
Consider `C[C@@H](C1CC1)N1Cc2cc(-c3ccn4nc(N)c(C(=O)NC5COC5)c4n3)cc(NS(C)(=O)=O)c2C1=O` [Example 78, 2-Amino-5-{2-[(1S)-1-cyclopropylethyl]-7-methanesulfonamido-1-oxo-2,3-dihydro-1H-isoindol-5-yl}-N-(oxetan-3-yl)pyrazolo[1,5-a]pyrimidine-3-carboxamide], for which the half-inhibitory concentration (IC50) on PI3Kγ (p120γ) (Table 1, p120γ) is less than 100 nM; on PI3Kγ (setting [1]) it was less than 100 nM.
As for `Cc1cc(-c2ccn3nc(N)c(C(=O)NC4(C#N)CCC4)c3n2)cc2c1C(=O)N([C@@H](C)C1CC1)C2` [Example 255], the IC50 at PI3Kγ (p120γ) (Table 2, p120γ) is less than 100 nM; on PI3Kγ (setting [2]), 100 to 1000 nM.
Turning to `COC(=O)c1ccc(NC(=O)c2c(N)nn3ccc(-c4cc5c(c(NS(C)(=O)=O)c4)C(=O)N([C@@H](C)C4CC4)C5)nc23)cn1` [Example 395], the IC50 at PI3Kγ (p120γ) was less than 100 nM; at PI3Kγ (setting [3]) it was 100 to 1000 nM.
Regarding `C[C@@H](C1CC1)N1Cc2cc(-c3ccn4nc(N)c(C(=O)Nc5ccnc(CO)c5)c4n3)cc(NS(C)(=O)=O)c2C1=O` [Example 379], the values for the IC50 at PI3Kγ (p120γ) and on PI3Kγ (setting [3]) were less than 100 nM and more than 1000 nM, respectively.
Take `Cc1cc(-c2ccn3nc(N)c(C(=O)N[C@H]4c5ccccc5C[C@@H]4O)c3n2)cc2c1C(=O)N([C@@H](C)C1CC1)C2` [Example 272]: the IC50 is less than 100 nM on PI3Kγ (p120γ) (Table 2, p120γ) and more than 1000 nM on PI3Kγ (setting [2]).
